Laboratory results taken from patent publication US11684594B2, “Antifungal prophylaxis for cornea” (PRESIDENT AND FELLOWS OF HARVARD COLLEGE, priority 2020, dated 2023).
Entries after “also recorded” stand apart in the source; their conditions may differ. Read-outs that look alike come from different tables or passages of the source.

Tests used:
[1] = system: human corneal-limbal epithelial cells (HCLE); type: cell-based; conditions: for Cytotoxicity / toxicity: HCLE cells, post-exposure Trypan blue staining; for Trypan Blue staining (% stained area per image) compared to control treatment TX-100 (1%): FIG. 2A, confluent HCLE monolayers, 1 min of contact, BAK 40 µg/mL, PI 0.5%, #3-IL 10 mM
Experimental: In Vitro Toxicity Tests. Trypan Blue assays for toxicity of various antimicrobial agents were conducted using human corneal cells. Telomerase-immortalized human corneal-limbal epithelial cells (HCLE) were thawed at 37° C. and quickly transferred to a sterile T75 cell culture flask. Cells were grown in keratinocyte serum-free medium (KSFM; Gibco™; Thermofisher Scientific; Waltham, Mass.) supplemented with bovine pituitary extract (25 μg/mL), epidermal growth factor (0.2 ng/mL), calcium chloride (0.4 mM CaCl2[…]2H2O; Sigma-Aldrich; St Louis, Mo.), and 1× penicillin/streptomycin, at 37° C. with 5% CO2. Once cells were confluent, they were passaged following trypsinization in 12- or 24-well plates. After incubation with Trypsin-EDTA (0.05%, Gibco™; Thermofisher Scientific; Waltham, Mass.) for 5-10 min at 37° C. with 5% CO2, the reaction was stopped with an equivalent volume of neutralizing medium (Dulbecco's Modified Eagle Medium/Nutrient Mixture F-12, DMEM/F-12, with HEPES and 10% newborn calf serum), centrifuged at 5,000×g for 5 min, and re-suspended in supplemented KSFM. Experiments were performed using cells from passages 31 to 36. Once cells reached confluency, they were gently washed twice with DMEM/F-12 (Gibco™; Thermofisher Scientific; Waltham, Mass.) and incubated with an antimicrobial agent for 1 min (n=2 wells per group). Controls included 1×PBS (diluent) and 1% TX-100 (cell permeabilizer). After exposure to various agents, the cells were washed three times with DMEM/F-12, incubated with 0.2% Trypan Blue for 5 min, and washed again three times with DMEM/F-12. The remaining media was aspirated and replaced with 1×PBS for imaging. Macro-images of the culture plate were taken with a smartphone camera (iPhone 7; Apple Inc.; Cupertino, Calif.), and 10× images were taken with an inverted microscope (Eclipse TS100; Nikon; Tokyo, Japan) attached to a digital camera (SPOT Insight Fire Wire; Diagnostic Instruments Inc.; Sterling Heights, Mich.). 3-6 images/well were obtained in clockwise direction from areas immediately adjacent to the center of the well, and without overlapping areas. Images were quantified in ImageJ Fiji software to determine the amount of cell uptake of Trypan Blue. Macros were created from the Color Threshoulder plugin (G. Landini) to batch process the images after color matching in Photoshop to reference images per treatment group. % Area of Trypan Blue staining per image was calculated as follows: (area of blue/area of all)×100%.

[2] = system: Candida albicans (ATCC 24433), Fusarium solani (ATCC MYA-3636), and Aspergillus fumigatus (ATCC MYA-3626); experiment: In vitro antifungal testing, statements not resolved by species; type: cell-based; conditions: species not resolved; for Efficacy/toxicity ratio, overall rank: fungicidal activity vs HCLE cytotoxicity; for Antifungal / fungicidal activity in vitro: agents at eye-drop or stated concentration
Experimental: Several commonly used antibiotics were tested in vitro against Candida albicans (ATCC 24433), Fusarium solani (ATCC MYA-3636), and Aspergillus fumigatus (ATCC MYA-3626). Time kill activity and minimum inhibitory concentrations (MIC) were determined. Also the antiseptics benzalkonium chloride (BAK), povidone-iodine (PI), and ionic liquids (ILs) consisting of a 1:1 mixture of choline and undecanoic acid, were tested. Toxicity was assayed in vitro on cultures of human corneal epithelial cells, subjected to Trypan Blue staining. Adhesion and tissue invasion experiments were also carried out, with or without γ-irradiation, and by analysis with fluorescent microscopy.
(§1) In Vitro Time Kill Tests. Microtiter time kill tests were carried out in vitro according to the published CLSI methods (M27-A2).^22

C. albicans (ATCC 24433) = experiment: In vitro time kill test, yeast; type: cell-based, Candida albicans; conditions: for Reduction in viable colonies: FIG. 1A, full strength; for Ratio fungicidal activity/cytotoxicity: FIG. 3, # of log10 reduction / fold-change in Trypan Blue staining vs PBS (HCLE), 1 min contact, C. albicans
Experimental: as §1
The inoculum was prepared by adjustment of the optical density at 600 nm (OD600) to 1.0 (corresponding to approximately 1×10^6 CFU/mL), and dilution by 1:10 in the final solution. To confirm the starting inoculum size, yeasts were plated […] and colonies counted after growth for 24 hrs at 37° C. The test solutions were neutralized at each time point by ten-fold dilution in Dey-Engley neutralizing broth (Sigma-Aldrich; St Louis, Mo.), and serially track diluted (PMID: 9343684) on Sabouraud dextrose agar (six serial 1:10 dilutions, 0.01 mL each) in technical triplicate. Colonies were counted and recorded following aerobic incubation for 24 hrs at 37° C.
(§2) To investigate the fungicidal activity of various antibiotics and antimicrobials, the reduction in fungal load after short contact times (0-15 min, FIGS. 2-3), to account for the effect of rapid dilution by the tear film, as occurs in patients after topical instillation, was measured.^23 The detection limit for time kill tests was approximately 100 CFU/mL for C. albicans, and 1 CFU/mL for F. solani and A. fumigatus (corresponding to a ≥3 log difference from the starting inoculum). 20-300 cells were considered a reliable counting range per dilution, and values were averaged when more than one dilution in the same plate were within this range.

[3] = system: A. fumigatus (ATCC MYA-3626); experiment: In vitro time kill test, filamentous fungi; type: cell-based, Aspergillus fumigatus; conditions: for Ratio fungicidal activity/cytotoxicity: FIG. 3, # of log10 reduction / fold-change in Trypan Blue staining vs PBS (HCLE), 1 min contact, A. fumigatus
Experimental: as §1
(§3) ii) Filamentous fungi: The antibiotic solutions, at either full or 1/10 strength, and antiseptics were inoculated with approximately 2×10^5-2×10^6 conidia/mL of F. solani or A. fumigatus in RPMI broth (buffered with MOPS at pH 7.0; Mediatech; Manassas, Va.) for 0-15 min. Conidia were collected by flooding the agar plates with 10 mL of sterile 1×PBS and 0.1% Tween® 20 (Sigma Aldrich; St Louis, Mo.). The solution was transferred to a sterile conical tube, and particles were allowed to settle for 10 min. The resulting supernatant was transferred to a new sterile conical tube and centrifuged at 3,000×g for 5 min. The supernatant was discarded, the remaining pellet was re-suspended in RPMI broth (buffered with MOPS at pH 7.0), and the OD600 was adjusted to 1.0. In the final test solutions, at each time point the inoculum was diluted 1:10 and neutralized in Dey-Engley neutralizing broth (Sigma-Aldrich; St Louis, Mo.). Neutralized cultures were then serially diluted and plated on Sabouraud dextrose agar (two serial 1:10 dilutions, 0.1 mL each) in technical duplicate. Viable conidia were counted and recorded following aerobic incubation for 48 hrs (or as soon as growth was visible) at 25-35° C.
as §2

[4] = system: F. solani (ATCC MYA-3636); experiment: In vitro time kill test, filamentous fungi; type: cell-based, Fusarium solani
Experimental: as §1, §3, §2

[5] = cited from earlier work
[6] = FIG. 1C, without BAK, MOX 5 mg/mL, GAT 5 mg/mL, CHL 5 mg/mL, VAN 14 mg/mL, within 120 min
[7] = FIG. 1B, tenth dilution, within 120 min
[8] = full strength (10,000 u/mL PMB, 40 g/mL BAK, 1 mg/mL TMP), within 120 min

CCCCCCCCCCCCCC(=O)NCCCN(C)C [Aldox, myristamidopropyl dimethylamine]
Cytotoxicity / toxicity [1]: high cytotoxicity
Efficacy/toxicity ratio, overall rank [2]: rank lower than PI
Antifungal / fungicidal activity in vitro [2]: rapid and broad fungicidal activity

N=C(NCCCCCCNC(=N)NC(=N)Nc1ccc(Cl)cc1)NC(=N)Nc1ccc(Cl)cc1.O=C(O)[C@H](O)[C@@H](O)[C@H](O)[C@H](O)CO.O=C(O)[C@H](O)[C@@H](O)[C@H](O)[C@H](O)CO [CDG, chlorhexidine digluconate]
Contact time required for the same effect as PI and the novel IL (≥3 log10 reduction) (C. albicans (ATCC 24433); FIG. 2B, CDG 0.05%): 5 min
Ratio fungicidal activity/cytotoxicity [3]: lowest ratio
Cytotoxicity / toxicity [1]: high cytotoxicity; also recorded: too toxic
Efficacy/toxicity ratio, overall rank [2]: rank lower than PI
Antifungal / fungicidal activity in vitro [2]: rapid and broad fungicidal activity; also recorded: effective

O=C(N[C@H](CO)[C@H](O)c1ccc([N+](=O)[O-])cc1)C(Cl)Cl [CHL, chloramphenicol]
Fungicidal activity (words) (C. albicans (ATCC 24433); [6]): fungicidal activity was not observed; also recorded: no effect
Antifungal / fungicidal activity in vitro [2]: no effect; also recorded: ineffective

COc1c(N2CCNC(C)C2)c(F)cc2c(=O)c(C(=O)O)cn(C3CC3)c12 (centres unmarked) [GAT, gatifloxacin]
Fungicidal activity (words) (C. albicans (ATCC 24433); [6]): fungicidal activity was not observed; also recorded: no effect
Antifungal / fungicidal activity in vitro [2]: no effect

COc1c(N2C[C@@H]3CCCN[C@@H]3C2)c(F)cc2c(=O)c(C(=O)O)cn(C3CC3)c12 [MOX, moxifloxacin]
Fungicidal activity (words) (C. albicans (ATCC 24433); [6]): no effect
Antifungal / fungicidal activity in vitro [2]: no effect

COc1cc(Cc2cnc(N)nc2N)cc(OC)c1OC [TMP, trimethoprim]
Fungicidal activity (words) (C. albicans (ATCC 24433); [7]): fungicidal activity was not observed
Fungicidal activity (words) (C. albicans (ATCC 24433); [8]): no effect
Antifungal / fungicidal activity in vitro [2]: no effect; also recorded: ineffective

CN[C@H](CC(C)C)C(=O)N[C@H]1C(=O)N[C@@H](CC(N)=O)C(=O)N[C@H]2C(=O)N[C@H]3C(=O)N[C@H](C(=O)N[C@H](C(=O)O)c4cc(O)cc(O)c4-c4cc3ccc4O)[C@H](O)c3ccc(c(Cl)c3)Oc3cc2cc(c3O[C@@H]2O[C@H](CO)[C@@H](O)[C@H](O)[C@H]2O[C@H]2C[C@](C)(N)[C@H](O)[C@H](C)O2)Oc2ccc(cc2Cl)[C@H]1O [VAN, vancomycin]
Fungicidal activity (words) (C. albicans (ATCC 24433); [6]): fungicidal activity was not observed; also recorded: no effect
Antifungal / fungicidal activity in vitro [2]: no effect; also recorded: ineffective

benzalkonium chloride [BAK]
Reduction in viable colonies (C. albicans (ATCC 24433); within 60 min): 2 log10
Reduction in viable colonies (C. albicans (ATCC 24433); within 120 min): 3 log10
Fungicidal activity (words) (C. albicans (ATCC 24433); [7]): fungicidal activity was not observed
Ratio fungicidal activity/cytotoxicity (C. albicans (ATCC 24433)): lowest ratio
Fungicidal activity (words) (C. albicans (ATCC 24433); [8]): comparable to the commercially prepared Polytrim®
Trypan Blue staining (% stained area per image) compared to control treatment TX-100 (1%) [1]: significantly lower amount of staining
Antifungal / fungicidal activity in vitro [2]: moderate antifungal activity
Reduction in viable conidia ([4]; FIG. 2C, within 1 min of contact, Polytrim full strength, PI 0.5%, BAK 40 µg/mL, #3-IL 10 mM): 2 log10

polymyxin B sulfate [PMB]
Reduction in viable colonies (C. albicans (ATCC 24433); within 60 min): 2 log10
Reduction in viable colonies (C. albicans (ATCC 24433); within 120 min): 3 log10
Fungicidal activity (words) (C. albicans (ATCC 24433); [7]): fungicidal activity was not observed
Fungicidal activity (words) (C. albicans (ATCC 24433); [8]): comparable to the commercially prepared Polytrim®
Antifungal / fungicidal activity in vitro [2]: moderate antifungal activity

povidone iodine [PI]
Ratio fungicidal activity/cytotoxicity (C. albicans (ATCC 24433)): highest ratios
Reduction (kill of C. albicans) (C. albicans (ATCC 24433); PI 0.01-0.1%, within 120 min): < 1 log
Reduction (kill of C. albicans) (C. albicans (ATCC 24433); PI 0.5-1%, within 1 min): ≥ 3 log
Reduction in viable conidia ([3]; FIG. 2D, within 1 min, PI 0.5%, #3-IL 10 mM, CDG 0.05%): 2 log10
Ratio fungicidal activity/cytotoxicity [3]: highest ratios
Trypan Blue staining (% stained area per image) compared to control treatment TX-100 (1%) [1]: significantly lower amount of staining
Tolerability on instillation into the eye ([5]; 1% concentration): well tolerated
Tolerability on instillation into the eye ([5]; 5% solution): acutely painful
Tolerability / ocular safety (words) ([5]; clinical or long-term topical ocular use): ocular inflammation from long-term use has occurred
Efficacy/toxicity ratio, overall rank [2]: good efficacy/toxicity ratio; also recorded: ranks second after the novel IL
Antifungal / fungicidal activity in vitro [2]: rapid and potent fungicidal activity
Ratio fungicidal activity/cytotoxicity ([4]; FIG. 3, # of log10 reduction / fold-change in Trypan Blue staining vs PBS (HCLE), 1 min contact, F. solani): highest ratios; also recorded: rank highest for F. solani
